In patent publication US10189859B2, “Derivatives of 6-(2,3-dichlorophenyl)-1,2,4-triazin-5-amine” (Nektar Therapeutics, priority 2013, dated 2019):
“And” between values parts separate entries of the source, which are not always exact repeats. Equal values may be shown once. Where a name gives a salt, the structure may show the parent alone. Read-outs that look alike come from different tables or passages of the source.

Molecular target: Nav1.7 sodium channels (human SCN9A gene) (Homo sapiens (Human), UniProt Q15858)
Sequence (Q15858 whole entry): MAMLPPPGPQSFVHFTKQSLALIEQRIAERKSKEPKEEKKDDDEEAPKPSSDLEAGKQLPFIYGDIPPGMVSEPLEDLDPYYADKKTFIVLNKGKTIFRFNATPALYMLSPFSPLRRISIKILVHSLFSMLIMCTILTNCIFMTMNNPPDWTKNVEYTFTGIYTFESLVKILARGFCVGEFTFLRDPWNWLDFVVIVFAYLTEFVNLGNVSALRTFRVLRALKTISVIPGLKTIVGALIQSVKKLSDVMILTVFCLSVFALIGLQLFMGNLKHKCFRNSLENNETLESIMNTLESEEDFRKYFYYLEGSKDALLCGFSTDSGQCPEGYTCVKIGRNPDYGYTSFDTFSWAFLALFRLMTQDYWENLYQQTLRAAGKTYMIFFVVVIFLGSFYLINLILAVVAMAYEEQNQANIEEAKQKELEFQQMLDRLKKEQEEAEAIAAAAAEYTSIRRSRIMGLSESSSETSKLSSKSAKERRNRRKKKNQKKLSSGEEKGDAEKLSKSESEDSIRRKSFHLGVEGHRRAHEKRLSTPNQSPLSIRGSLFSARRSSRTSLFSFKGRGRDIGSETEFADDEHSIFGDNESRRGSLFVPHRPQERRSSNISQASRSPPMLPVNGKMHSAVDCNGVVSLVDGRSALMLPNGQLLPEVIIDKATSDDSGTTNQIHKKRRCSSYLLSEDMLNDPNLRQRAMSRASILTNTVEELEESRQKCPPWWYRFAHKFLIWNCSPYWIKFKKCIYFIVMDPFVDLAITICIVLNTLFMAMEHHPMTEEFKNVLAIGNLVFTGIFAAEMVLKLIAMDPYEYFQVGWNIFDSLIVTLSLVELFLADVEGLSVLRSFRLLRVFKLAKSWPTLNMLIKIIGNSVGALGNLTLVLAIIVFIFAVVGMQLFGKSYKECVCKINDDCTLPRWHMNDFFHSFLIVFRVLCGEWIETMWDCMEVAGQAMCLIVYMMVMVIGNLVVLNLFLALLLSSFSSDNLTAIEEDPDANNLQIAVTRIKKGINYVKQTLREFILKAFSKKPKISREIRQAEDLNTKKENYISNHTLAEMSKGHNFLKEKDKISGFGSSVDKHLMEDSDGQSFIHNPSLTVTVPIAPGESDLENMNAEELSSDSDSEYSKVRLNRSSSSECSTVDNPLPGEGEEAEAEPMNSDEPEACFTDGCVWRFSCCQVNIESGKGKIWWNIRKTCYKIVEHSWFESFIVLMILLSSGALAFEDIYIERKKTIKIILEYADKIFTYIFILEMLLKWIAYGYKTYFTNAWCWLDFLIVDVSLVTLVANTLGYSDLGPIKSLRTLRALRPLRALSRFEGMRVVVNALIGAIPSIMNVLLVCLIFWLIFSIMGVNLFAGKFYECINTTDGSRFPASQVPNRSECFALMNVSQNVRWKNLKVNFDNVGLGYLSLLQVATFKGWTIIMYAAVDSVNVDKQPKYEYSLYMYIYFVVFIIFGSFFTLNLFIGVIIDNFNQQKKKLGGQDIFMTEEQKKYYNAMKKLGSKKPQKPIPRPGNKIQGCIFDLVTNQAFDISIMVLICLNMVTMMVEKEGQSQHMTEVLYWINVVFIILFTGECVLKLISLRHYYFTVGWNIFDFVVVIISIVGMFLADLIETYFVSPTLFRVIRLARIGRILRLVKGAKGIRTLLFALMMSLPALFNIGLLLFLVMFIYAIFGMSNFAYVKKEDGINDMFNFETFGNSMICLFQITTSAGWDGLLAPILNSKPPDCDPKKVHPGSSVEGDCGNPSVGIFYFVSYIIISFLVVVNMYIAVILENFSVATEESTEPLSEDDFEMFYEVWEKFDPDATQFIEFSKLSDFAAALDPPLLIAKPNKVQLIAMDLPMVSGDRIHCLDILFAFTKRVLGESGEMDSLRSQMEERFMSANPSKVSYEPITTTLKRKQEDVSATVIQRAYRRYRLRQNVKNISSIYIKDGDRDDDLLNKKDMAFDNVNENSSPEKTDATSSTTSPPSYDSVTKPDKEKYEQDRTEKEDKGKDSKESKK
Assay: Automated patch clamp (IonWorks Barracuda) of Nav1.7 stably expressed in CHO cells
Assay type: cell-based
Experimental: The potencies of the compounds provided herein to block specific Na+ channels was measured using automated patch clamp electrophysiologically of Nav1.7 sodium channels (human SCN9A gene) stably expressed in CHO cells using the IonWorks™ Barracuda system. Currents were measured from the whole cell patch configuration. From a holding potential of −90 mV, membranes were subjected to a 200 ms pre-pulse to −120 mV, then pulsed to 0 mV to measure blockade of the tonic (resting) state. Inactivated state block was elicited by repolarization to −100 mV (20 ms pulse duration), followed by depolarization to 0 mV (20 ms pulse duration). Peak inward Na+ currents were measured in the presence of vehicle or various concentrations of the test compound to determine the percent block of current. Concentration-response relationships were used to calculate IC50 values for the illustrative compounds.

[1] = inactivated state block, CHO cells, read-out: Inactivated state IC50
[2] = tonic (resting) state block, CHO cells, read-out: Tonic state IC50
[3] = read-out: Inactivated state IC50

| Compound | IC50 [1] | IC50 [2] | IC50 [3] [µM] | IC50 (read-out: Tonic state IC50) [µM] |
| --- | --- | --- | --- | --- |
| Nc1nc(NC(CO)CO)nnc1-c1cccc(Cl)c1Cl [Compound 20, 2-((5-Amino-6-(2,3-dichlorophenyl)-1,2,4-triazin-3-yl)amino)propane-1,3-diol] | > 300 µM | > 200 µM | – | – |
| Nc1nc(N2CCN(CCOC(F)(F)F)CC2)nnc1-c1cccc(Cl)c1Cl [Compound 88, 6-(2,3-dichlorophenyl)-3-(4-(2-(trifluoromethoxy)ethyl)piperazin-1-yl)-1,2,4-triazin-5-amine] | < 50 µM | 113 µM | – | – |
| CC(CS(=O)(=O)CCO)Nc1nnc(-c2cccc(Cl)c2Cl)c(N)n1 (centres unmarked) [Compound 93, 2-((2-((5-amino-6-(2,3-dichlorophenyl)-1,2,4-triazin-3-yl)amino)propyl)sulfonyl)ethanol] | > 300 µM | > 200 µM | – | – |
| COCCOCCOCCN1CCN(c2nnc(-c3cc(F)cc(Cl)c3Cl)c(N)n2)CC1 [Compound 104, 3-N-(4′-N-mPEG3-piperazinyl) 5-fluoro lamotrigine] | < 50 µM | > 200 µM | – | – |
| COCCOCCOCC(=O)N1CCC(Nc2nnc(-c3cccc(Cl)c3Cl)c(N)n2)CC1 [Compound 107, 3-N-(4′-N-mPEG2-CM piperidinyl) lamotrigine] | > 300 µM | > 200 µM | – | – |
| COCCOCCOCCN1CCC(Nc2nnc(-c3cccc(Cl)c3Cl)c(N)n2)CC1 [Compound 108, 3-N-(1-N-mPEG3-piperidin-4-yl) lamotrigine] | 185 µM | > 200 µM | – | – |
| COCCOCCOCCN1C(C)CN(c2nnc(-c3cccc(Cl)c3Cl)c(N)n2)CC1C (centres unmarked) [Compound 111, 3-N-(4-N-mPEG3-3,5-dimethylpiperazinyl) lamotrigine] | < 50 µM | > 200 µM | – | – |
| Nc1nc(N2CCN3CCOC[C@@H]3C2)nnc1-c1cccc(Cl)c1Cl [Compound 131, (S)-6-(2,3-dichlorophenyl)-3-(hexahydropyrazino[2,1-c][1,4]oxazin-8(1H)-yl)-1,2,4-triazin-5-amine di HCl salt] | – | – | 187 | > 200 |
| Nc1nc(NC2CNC2)nnc1-c1cccc(Cl)c1Cl [Compound 132, 3-N-(azetidin-3-yl) lamatrogine 2HCl salt] | > 300 µM | > 200 µM | – | – |
| CC(C)(C)OCC(O)CN1CCN(c2nnc(-c3cccc(Cl)c3Cl)c(N)n2)C[C@H]1CO (stereo partly drawn) [Compound 136, 1-((S)-4-(5-amino-6-(2,3-dichlorophenyl)-1,2,4-triazin-3-yl)-2-(hydroxymethyl)piperazin-1-yl)-3-(tert-butoxy)propan-2-ol] | 86.6 µM and 92.7 µM | > 200 µM | – | – |
| CC(C)(C)OCC(O)CN1CCN(c2nnc(-c3cccc(Cl)c3Cl)c(N)n2)[C@H](CO)C1 (stereo partly drawn) [Compound 139, 1-((S)-4-(5-amino-6-(2,3-dichlorophenyl)-1,2,4-triazin-3-yl)-3-(hydroxymethyl)piperazin-1-yl)-3-(tert-butoxy)propan-2-ol] | 103 µM | > 200 µM | – | – |
| Nc1nc(N2CCN(CC(O)CO)C[C@H]2CO)nnc1-c1cccc(Cl)c1Cl (stereo partly drawn) [Compound 140, 3-((S)-4-(5-amino-6-(2,3-dichlorophenyl)-1,2,4-triazin-3-yl)-3-(hydroxymethyl)piperazin-1-yl)propane-1,2-diol] | – | – | > 300 | > 200 |
| CN(CCNC[C@H](O)C(F)(F)F)c1nnc(-c2cccc(Cl)c2Cl)c(N)n1 [Compound 147, (S)-3-((2-((5-amino-6-(2,3-dichlorophenyl)-1,2,4-triazin-3-yl)(methyl)amino)ethyl)amino)-1,1,1-trifluoropropan-2-ol] | < 50 µM | 151 µM and 179 µM | – | – |
| CN(CCNc1nnc(-c2cccc(Cl)c2Cl)c(N)n1)C[C@H](O)C(F)(F)F [Compound 148, (S)-3-((2-((5-amino-6-(2,3-dichlorophenyl)-1,2,4-triazin-3-yl)amino)ethyl)(methyl)amino)-1,1,1-trifluoropropan-2-ol] | < 50 µM | 149 µM | – | – |
| COCCOCCOCC(O)CNc1nnc(-c2cccc(Cl)c2Cl)c(N)n1 (centres unmarked) [Compound 153, 1-((5-Amino-6-(2,3-dichlorophenyl)-1,2,4-triazin-3-yl)amino)-3-(2-(2-methoxyethoxy)ethoxy)propan-2-ol] | > 300 µM | > 200 µM | – | – |
| COC[C@@H](O)CN(C)CC1CN(c2nnc(-c3cccc(Cl)c3Cl)c(N)n2)C1 [Compound 160, (S)-1-(((1-(5-amino-6-(2,3-dichlorophenyl)-1,2,4-triazin-3-yl)azetidin-3-yl)methyl)(methyl)amino)-3-methoxypropan-2-ol] | 292 µM | > 200 µM | – | – |
| COCCNCCOCCNc1nnc(-c2cccc(Cl)c2Cl)c(N)n1 [Compound 173, 6-(2,3-dichlorophenyl)-N3-(2-(2-((2-methoxyethyl)amino)ethoxy)ethyl)-1,2,4-triazine-3,5-diamine] | 214 µM | > 200 µM | – | – |
| CC(=O)NCCOCCNc1nnc(-c2cccc(Cl)c2Cl)c(N)n1 [Compound 175, N-(2-(2-((5-amino-6-(2,3-dichlorophenyl)-1,2,4-triazin-3-yl)amino)ethoxy)ethyl)acetamide] | > 300 µM | > 200 µM | – | – |
| CS(=O)(=O)CCOCCNc1nnc(-c2cccc(Cl)c2Cl)c(N)n1 [Compound 176, 6-(2,3-dichlorophenyl)-N3-(2-(2-(methylsulfonyl)ethoxy)ethyl)-1,2,4-triazine-3,5-diamine] | 267 µM and 181 µM | > 200 µM | – | – |

Further lines, with some results ahead:

| IC50 [1] | IC50 [2] | Compound | IC50 [3] [µM] | IC50 (read-out: Tonic state IC50) [µM] |
| --- | --- | --- | --- | --- |
| < 50 µM | 70 µM | Nc1nc(N2CCN(C[C@H](O)COCC3CCC3)CC2)nnc1-c1cccc(Cl)c1Cl [Compound 80, (2S)-1-{4-[5-Amino-6-(2,3-dichlorophenyl)-1,2,4-triazin-3-yl]piperazin-1-yl}-3-(cyclobutylmethoxy)propan-2-ol] | – | – |
| < 50 µM | 171 µM | Nc1nc(N2CCN(C[C@H](O)COCC3CC3)CC2)nnc1-c1cccc(Cl)c1Cl [Compound 83, (2S)-1-{4-[5-Amino-6-(2,3-dichlorophenyl)-1,2,4-triazin-3-yl]piperazin-1-yl}-3-(cyclopropylmethoxy)propan-2-ol] | – | – |
| < 50 µM | 192 µM | Nc1nc(N2CCN(C[C@H](O)COC3CCC3)CC2)nnc1-c1cccc(Cl)c1Cl [Compound 84, (2S)-1-{4-[5-Amino-6-(2,3-dichlorophenyl)-1,2,4-triazin-3-yl]piperazin-1-yl}-3-(cyclobutyloxy)propan-2-ol] | – | – |
| < 50 µM | > 200 µM | Nc1nc(N2CCN(CC(F)(F)F)CC2)nnc1-c1cccc(Cl)c1Cl [Compound 87, 6-(2,3-dichlorophenyl)-3-(4-(2,2,2-trifluoroethyl)piperazin-1-yl)-1,2,4-triazin-5-amine] | – | – |
| > 300 µM | > 200 µM | COCCOCCOCC(=O)N1CCN(c2nnc(-c3cccc(Cl)c3Cl)c(N)n2)CC1 [Compound 105, 3-N-mPEG2-CM-piperazinyl lamotrigine] | – | – |
| > 150 µM | > 150 µM | Nc1nc(N2CCN[C@@H](CO)C2)nnc1-c1cccc(Cl)c1Cl [Compound 122, (R)-5-amino-3-N-[3-(hydroxymethyl)piperazin-1-yl] lamotrigine diHCl] | – | – |
| > 300 µM and 225 µM | > 200 µM | COC[C@@H](O)CN1CCN(c2nnc(-c3cccc(Cl)c3Cl)c(N)n2)C[C@H]1CO [Compound 134, (S)-1-((S)-4-(5-amino-6-(2,3-dichlorophenyl)-1,2,4-triazin-3-yl)-2-(hydroxymethyl)piperazin-1-yl)-3-methoxypropan-2-ol] | – | – |
| > 300 µM | > 200 µM | Nc1nc(N2CCNC[C@H]2CO)nnc1-c1cccc(Cl)c1Cl [Compound 135] | – | – |
| > 300 µM | > 200 µM | COC[C@@H](O)CN1CCN(c2nnc(-c3cccc(Cl)c3Cl)c(N)n2)[C@H](CO)C1 [Compound 138, (S)-1-((S)-4-(5-amino-6-(2,3-dichlorophenyl)-1,2,4-triazin-3-yl)-3-(hydroxymethyl)piperazin-1-yl)-3-methoxypropan-2-ol] | – | – |
| 149 µM | > 200 µM | Nc1nc(N2CCNCC23CC3)nnc1-c1cccc(Cl)c1Cl [Compound 141, 6-(2,3-dichlorophenyl)-3-(4,7-diazaspiro[2.5]octan-4-yl)-1,2,4-triazin-5-amine] | – | – |
| 289 µM | > 200 µM | COC[C@@H](O)CN[C@@H]1CCN(c2nnc(-c3cccc(Cl)c3Cl)c(N)n2)C1 [Compound 159, (S)-1-(((R)-1-(5-amino-6-(2,3-dichlorophenyl)-1,2,4-triazin-3-yl)pyrrolidin-3-yl)amino)-3-methoxypropan-2-ol] | – | – |
| 51.4 µM | 147 µM | COC[C@@H](O)CN1CCC12CCCN(c1nnc(-c3cccc(Cl)c3Cl)c(N)n1)C2 (stereo partly drawn) [Compound 161, (2S)-1-(6-(5-amino-6-(2,3-dichlorophenyl)-1,2,4-triazin-3-yl)-1,6-diazaspiro[3.5]nonan-1-yl)-3-methoxypropan-2-ol] | – | – |
| 194 µM | > 200 µM | COC[C@@H](O)CNC1(C)CCN(c2nnc(-c3cccc(Cl)c3Cl)c(N)n2)C1 (stereo partly drawn) [Compound 162, (2S)-1-((1-(5-amino-6-(2,3-dichlorophenyl)-1,2,4-triazin-3-yl)-3-methylpyrrolidin-3-yl)amino)-3-methoxypropan-2-ol] | – | – |
| > 300 µM | > 200 µM | COC[C@@H](O)CNC1CN(c2nnc(-c3cccc(Cl)c3Cl)c(N)n2)C1 [Compound 163, (S)-1-((1-(5-amino-6-(2,3-dichlorophenyl)-1,2,4-triazin-3-yl)azetidin-3-yl)amino)-3-methoxypropan-2-ol] | – | – |
| > 300 µM | > 200 µM | CN1CCN(CCOCCNc2nnc(-c3cccc(Cl)c3Cl)c(N)n2)CC1 [Compound 169, 6-(2,3-dichlorophenyl)-N3-(2-(2-(4-methylpiperazin-1-yl)ethoxy)ethyl)-1,2,4-triazine-3,5-diamine] | – | – |
